Experimental data taken from patent publication US6992073B2, “Use of N-acetyl-D-glucosamine in the manufacture of a medicament for treating cervical erosion” (Third Military Medical University, Chinese People's …, priority 2002, dated 2006).

Legend:
cervix erosion = experiment: Clinic test in patients with cervix erosion; type: in vivo, human beings; conditions: treating group 83 cases, positive medicament control group 60 cases
From the text: A spray formulation of 2% N-acetyl-D-glucosamine was applied to human beings, up to the end of August 1999, there were 123 cases of patients to be observed in total.

[1] = tested on: pathogenic microorganism such as Candida albicans, vagina Heamophilus; experiment: Test of removing pathogenic microorganism by resistance to field planting action; type: cell-based; conditions: in situ bacterial field planting, qualitative and quantitative determination tests
Proteus Mirabilis = experiment: Promoting wave test (bio-wave model on LB plate); type: cell-based
From the text: (§1) • 1. […] Experimental Results and Evaluation: • The experiment adopts a bio-wave model which is used to research the promoting wave function of the compound of formula (I). […] II. Toxicological Test of the Compound of Formula (I), including: • 1. acute toxicity test: including tests of administrating medicine by oral, Intravenous injection and maximum limit amount for administration; • 2. […] III. Test of Removing Pathogenic Microorganism by Resistance to Field Planting Action

[2] = in vivo
From the text: as §1

Lactobacilli = experiment: Liquid cultivation of Lactobacilli; type: cell-based
From the text: as §1

Row | Structure (SMILES) | cured (number of cases) (cervix erosion) | effective (number of cases) (cervix erosion) | effect on field planting growth of pathogenic microorganism [1] | sterilizing or bacteria-inhibiting effect [1] | promoting wave function (wave pattern of concentric rings) (Proteus Mirabilis) | acute test dosage relative to the injection dosage for human being [2] [times] | growth of Lactobacilli (Lactobacilli)
1 | O=[N+]([O-])[O-].[Ag+] [AgNO3] | 5 | 8 | – | – | – | – | –
2 | CC(=O)N[C@@H]1[C@@H](O)[C@H](O)[C@@H](CO)O[C@H]1O [compound of formula (I), N-acetyl-D-glucosamine] | – | – | disabling pathogenic microorganism such as Candida albicans, vagina Heamophilus and etc. from field planting growth | substantially has no sterilizing or bacteria-inhibiting effect | many fine waves on each ring emerged | 300 | can improve the growth of Lactobacilli
